Test results: PubChem BioAssay (NCI)
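In this assay, cells in 96-well plates receive the compound at five concentrations for 48 hours. Endpoints are linearly interpolated between the surrounding concentrations. TGI: concentration producing complete growth inhibition.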

Tests used:
Experiment in all cases: NCI tumour cell line growth inhibition, 48 h
MDA-MB-435 = test system: MDA-MB-435
HL-60(TB) leukemia = test system: HL-60(TB) leukemia
SK-MEL-2 melanoma = test system: SK-MEL-2 melanoma
A549 NSCLC = test system: A549 NSCLC
CCRF-CEM leukemia = test system: CCRF-CEM leukemia
SF-268 CNS = test system: SF-268 CNS
K-562 leukemia = test system: K-562 leukemia
SNB-75 CNS = test system: SNB-75 CNS
UACC-257 melanoma = test system: UACC-257 melanoma
RXF 393 renal = test system: RXF 393 renal
UO-31 renal = test system: UO-31 renal
U251 CNS = test system: U251 CNS
SF-539 CNS = test system: SF-539 CNS
HCT-15 colon = test system: HCT-15 colon
SK-MEL-28 melanoma = test system: SK-MEL-28 melanoma
SK-OV-3 ovarian = test system: SK-OV-3 ovarian
SR leukemia = test system: SR leukemia
HT29 colon = test system: HT29 colon
ACHN renal = test system: ACHN renal

Row | SMILES | TGI (MDA-MB-435) [µM] | TGI (HL-60(TB) leukemia) [µM] | TGI (SK-MEL-2 melanoma) [µM] | TGI (A549 NSCLC) [µM] | TGI (CCRF-CEM leukemia) [µM] | TGI (SF-268 CNS) [µM] | TGI (K-562 leukemia) [µM] | TGI (SNB-75 CNS) [µM] | TGI (UACC-257 melanoma) [µM] | TGI (RXF 393 renal) [µM] | TGI (UO-31 renal) [µM] | TGI (U251 CNS) [µM] | TGI (SF-539 CNS) [µM] | TGI (HCT-15 colon) [µM] | TGI (SK-MEL-28 melanoma) [µM] | TGI (SK-OV-3 ovarian) [µM] | TGI (SR leukemia) [µM] | TGI (HT29 colon) [µM] | TGI (ACHN renal) [µM]
1 | c1ccc2c(c1)nc1n2C2CCC(C2)N1 (stereo not drawn) | > 10 | > 10 | > 10 | > 10 | > 10 | > 10 | > 10 | > 10 | > 10 | > 10 | > 10 | > 10 | > 10 | > 10 | > 10 | > 10 | > 10 | > 10 | –
2 | Cn1c(=O)c2c(ncn2CCCCOc2ccc3c(c2)[n+]([O-])nc(N)[n+]3[O-])n(C)c1=O | > 100 | > 100 | > 100 | > 100 | > 100 | > 100 | > 100 | 90 | > 100 | 80.4 | > 100 | 91.8 | 70 | > 100 | > 100 | > 100 | > 100 | > 100 | –
3 | O=C1NC(=O)C(COCc2ccccc2)C2=C1SCCC2 (stereo not drawn) | > 100 | > 100 | > 100 | > 100 | > 100 | > 100 | > 100 | > 100 | > 100 | > 100 | > 100 | > 100 | > 100 | > 100 | > 100 | – | > 100 | > 100 | > 100
4 | CC(C)C/C=C/C1=NN(c2cccc(S(=O)(=O)O)c2)C2(C1)SCC(=O)N2c1nc2ccccc2s1 (stereo not drawn) | 84.6 | 82 | > 100 | > 100 | 64.4 | > 100 | > 100 | > 100 | > 100 | > 100 | > 100 | > 100 | > 100 | > 100 | > 100 | – | 74.5 | > 100 | > 100
5 | COc1ccc(C2(O)c3ccccc3C(=O)N(C)C2(O)c2ccc(OC)cc2)cc1 (stereo not drawn) | 42.2 | > 100 | > 100 | > 100 | > 100 | > 100 | > 100 | – | > 100 | > 100 | > 100 | > 100 | > 100 | > 100 | > 100 | > 100 | > 100 | > 100 | –
6 | CCCCCC[C@H]1C(=O)O[C@H](C)[C@H](NC(=O)c2cccc(NC=O)c2OC)C(=O)O[C@@H](C)[C@@H]1OC(=O)CC(C)C (tested in a mixture with another compound) | > 100 | > 100 | > 100 | 21.4 | 85.3 | > 100 | > 100 | – | 55.7 | > 100 | > 100 | 34.1 | 78.3 | > 100 | > 100 | 39.2 | 36 | > 100 | 49.2
7 | CCCCOCCOC1=CC(=O)c2c(O)ccc(O)c2C1=O | 0.334 | 2.99 | 3.26 | 3.41 | 4.04 | 3.65 | > 10 | 2.91 | 2.23 | 3.02 | 3.01 | 3.07 | 2.94 | – | 3 | > 10 | 5.11 | 3.12 | 3.1
8 | CN(C)CCn1c(=O)c2ccc3c4c(nn3CCN(C)C)c3cc(O)ccc3n(c1=O)c24 | 0.641 | 1.96 | 0.576 | 1.54 | 0.656 | 0.591 | 1.56 | 1.42 | 1.16 | 0.977 | 0.675 | – | 3.15 | 3.36 | 1.58 | 0.74 | 0.0505 | 0.262 | 0.689
9 | C/C(CC1SCCCS1)=C(/C)CC1SCCCS1 | > 100 | > 100 | > 100 | > 100 | > 100 | > 100 | > 100 | > 100 | – | > 100 | > 100 | – | > 100 | > 100 | > 100 | – | > 100 | > 100 | > 100
10 | CC(C)CC(NC(=O)C(CCI)Cc1ccccc1)C(=O)Nc1ccccc1 (stereo not drawn) | > 100 | 64.6 | > 100 | > 100 | > 100 | – | > 100 | > 100 | > 100 | > 100 | 84.7 | > 100 | > 100 | > 100 | > 100 | > 100 | > 100 | – | > 100
11 | CC1=N[C@](C)(C2CC3C=CC2C3=O)COC1=O (stereo partly drawn) | > 100 | > 100 | – | > 100 | > 100 | > 100 | > 100 | > 100 | > 100 | > 100 | > 100 | > 100 | > 100 | – | > 100 | > 100 | > 100 | > 100 | > 100
12 | CCOc1ccc(NCC2CC/C(=C\c3ccc(O)cc3)C2=O)cc1 (stereo not drawn) | 35.8 | 5.33 | – | 48.6 | 49 | 30.8 | > 100 | 27.8 | 30.7 | 32.7 | 33.6 | 30.7 | 36.1 | 17.8 | 29.2 | > 58.5 | 5.13 | 33 | 31.2
13 | Cn1cnc(N2CCCC2)c(C#N)c1=O | > 100 | > 100 | > 100 | > 100 | > 100 | > 100 | > 100 | – | > 100 | > 100 | > 100 | > 100 | > 100 | > 100 | > 100 | – | > 100 | > 100 | > 100
